# Source: PubChem BioAssay AID1996
# Conditions: buffer; pH 7.4; 200.0 µM
row,solubility kinetic [µg/mL],SMILES
1,< 0.4,CCn1c(=O)c(C(=O)Nc2ccc(C)cc2C)c(O)c2ccccc21
2,> 66.4,CCOc1ccccc1Nc1nnc(SCC(=O)N(C)C2CCS(=O)(=O)C2)s1 (stereo not given)
3,5.3,Cc1ccc(NC(=O)CNc2cc(S(=O)(=O)N3CCOCC3)ccc2N2CCOCC2)cc1S(=O)(=O)N(C)C
4,> 46.5,Cl.O=C(CCl)N1CCN(CC(=O)N2CCCC2)CC1
5,> 51.1,CN1CCN(c2ccccc2NC(=O)c2cccc([N+](=O)[O-])c2)CC1
6,> 47.7,COc1cc(-n2c(C)nc3cccnc32)c(Cl)cc1C(=O)O
7,> 40.4,CCCCc1nnc(NC(=O)C2=COCCO2)s1
8,> 34.2,O=C(NCc1ccccc1)c1ccc[n+]([O-])c1
9,> 30.8,COC(=O)c1cccc2c1NC(=O)C2=O
10,12.1,CC1(c2ccc([N+](=O)[O-])cc2)Nc2ccccc2S1 (stereo not given)
11,> 34.4,CC(C)CC(=O)Nc1ncc([N+](=O)[O-])s1
12,30.7,Cc1cc(Cl)cc(C)c1OCCCCCn1ccnc1
13,1.1,Cc1cccc(/N=C/c2sc3ccccc3c2O)n1
14,> 42.1,CN1CCN(S(=O)(=O)c2ccc(Cl)s2)CC1
15,> 27.2,N#C/C(=C\N1CCOCC1)C(N)=O
16,> 45.4,O=C(CSc1cccc[n+]1[O-])NCCCc1ccccc1
17,> 48.7,COc1ccc(CNC(=O)N[C@@H](CC(C)C)C(=O)O)cc1OC
18,> 43.6,O=C(NCc1ccc2c(c1)OCO2)c1ccc(Cl)nc1
19,> 54.8,O=C(CN1C(=O)NC2(CCOc3ccccc32)C1=O)NCc1ccccc1 (stereo not given)
20,44,Cn1c(CCNC(=O)C2CCCCC2)nc2cc([N+](=O)[O-])ccc21
21,> 45.2,CCc1ccc2c(c1)C(O)(CC(=O)c1cccs1)C(=O)N2 (stereo not given)
22,> 45.4,CCN1CCN(S(=O)(=O)Cc2ccccc2Cl)CC1
23,< 0.3,CCCC(=O)Nc1nc2c(C)c(Cl)ccc2s1
24,34.6,O=C(Nc1cc(Cl)cc(Cl)c1)N1CCCC1

row,solubility kinetic [µg/mL],SMILES
1,> 49.4,CC1(C)C2CCC1(CS(=O)(=O)N1CCCC1C(=O)O)C(=O)C2 (stereo not given)
2,> 44.2,CN1CCN(CC(=O)Nc2nc3c(s2)CCCC3)CC1
3,2.2,COc1ccc(C(=O)Nc2ccc3ccccc3n2)c(OC)c1OC
4,> 71,COc1ccc(C(CNC(=O)c2ccc(S(=O)(=O)N3CC(C)CC(C)C3)cc2)N(C)C)cc1 (stereo not given)
5,4,CCOc1cc(/C=C2\SC(=O)N(c3ccc(O)cc3)C2=O)ccc1O
6,24.6,O=C(/C=C\c1ccc2c(c1)OCO2)CC1(O)C(=O)Nc2ccccc21 (stereo not given)
7,> 42.2,CCC(=O)Nc1cccc(-c2nc3ncccc3o2)c1C
8,> 58.9,Cc1ccc(S(=O)(=O)N2CCC[C@H]2C(=O)NCc2ccccc2Cl)cc1
9,> 43.9,O=S(=O)(c1ccc(Cl)cc1)n1cnc2ccccc21
10,37.4,O=C(CCc1ccccc1)NCCc1ccc(F)cc1
11,3.7,N#Cc1c(N)nc2c(c1-c1ccc(F)cc1)CCC2
12,17.4,CCCc1cc(=O)[nH]c(SCCc2ccccc2)n1
13,28.5,c1ccc2cc(Cn3ccnc3)ccc2c1
14,0.5,CCSc1ncc(Cl)c(C(=O)Nc2ccccc2F)n1
15,1.2,O/N=C/c1ccnc(SCc2ccc(Cl)cc2)n1
16,> 45.4,Cc1cccc(C)c1NC(=O)CN(C)C(=O)C1CCCCC1
17,0.4,CCCc1c(C)nc(N2CCN(c3ccccc3F)CC2)[nH]c1=O
18,10.9,CCCCOc1ccc(C(=O)NCC(=O)OCC(=O)c2c(N)n(C)c(=O)n(C)c2=O)cc1
19,> 49.3,O=C(Nc1ccccc1)N(c1ccccc1)C1C=CS(=O)(=O)C1 (stereo not given)
20,37,Cl.Clc1ccc(CNCC2CCCO2)c(Cl)c1 (stereo not given)
21,> 44.8,CN(C)C(CNC(=O)c1cc2ccccc2o1)c1ccco1 (stereo not given)
22,34.9,CNC(=O)NC(=O)C(C)Oc1ccccc1F (stereo not given)
23,13.2,O=C(NC1CCCc2ccccc21)c1cc(Cl)ccn1 (stereo not given)
24,> 57.3,CC(NC(=O)COC(=O)Cn1cc(C(F)(F)F)ccc1=O)c1ccccc1 (stereo not given)

row,solubility kinetic [µg/mL],SMILES
1,> 34.1,CC1(C)Cc2ccccc2C(/C(C#N)=N/O)=N1
2,30.1,COC(=O)c1cc2c(=O)c3ccccc3oc2nc1/C=C/N(C)C
3,> 37.8,Cn1c(=O)c2c(nc3n2CC(CO)O3)n(C)c1=O (stereo not given)
4,> 67.4,COc1ccc(NC(C)C(=O)Nc2cccc(S(=O)(=O)N3CCOCC3)c2)cc1OC (stereo not given)
5,17.7,O=C(NCC(c1ccco1)N1CCCCC1)c1ccc(S(=O)(=O)Nc2ccccc2Cl)cc1 (stereo not given)
6,> 44.8,Nc1cc(Cl)ccc1C(=O)OCC(=O)N1CCOCC1
7,37.6,N/C(=N\OC(=O)CSc1ccccc1)c1ccncc1
8,33.2,O=C(NCCc1ccc(Cl)cc1Cl)c1ccc2nc[nH]c2c1
9,> 49.1,O=C(O)c1ccc(Nc2ccc(Cl)c(Cl)c2)c([N+](=O)[O-])c1
10,> 45.2,COc1cccc(C(=O)O/N=C(\N)c2ccccn2)c1OC
11,16.9,CSc1ccccc1NC(=O)COC(=O)/C=C/c1ccco1
12,4,COc1ccc(/C=C/C(=O)NC2CCCCC2C)cc1 (stereo not given)
13,> 53.1,CSC1=NCCN1C(=O)c1c(-c2c(F)cccc2Cl)noc1C
14,> 38.1,CC(C)(Oc1ccc(Cl)cc1)C(=O)NC1CC1
15,> 49,O=C(COC(=O)c1cc([N+](=O)[O-])ccc1Cl)NC1CCCC1
16,20.9,O=C1Nc2ccccc2Nc2ccccc21
17,> 42.1,CC(C)n1c(SCC(=O)NC2CC2)nnc1C1CC1
18,> 39,CNC(=O)/C(=C\c1ccco1)NC(=O)c1ccco1
19,> 42.3,O=C(CS(=O)(=O)c1ccccc1)Nc1nccs1
20,4.3,Cc1ccc(OCCC(=O)OCC(=O)Nc2cc(C)cc(C)c2)cc1
21,> 40.4,COc1cc2ccccc2cc1C(=O)N1CCCCC1
22,> 43.6,Cc1nc(C)c(C(=O)OCC(=O)Nc2ccccc2)s1
23,12.2,OC(CN1CCN(c2cccc(Cl)c2)CC1)c1ccc(F)cc1 (stereo not given)
24,43.2,Cn1cccc1C1C(C#N)=C(N)OC2=C1C(=O)CC(C)(C)C2 (stereo not given)

row,solubility kinetic [µg/mL],SMILES
1,10.6,O=C1NC(=O)c2cc3ccccc3cc21
2,> 49.1,COc1ccc(C(=O)Nc2ccc(-c3n[nH]c(=S)o3)cc2)cc1
3,44.7,CCN(CC)CCn1c(N)nc2ccccc21.Cl
4,> 40.3,CC(=O)O.CC1=CC(C)C(/C=N/N=C(N)N)C(C)C1 (stereo not given)
5,7.4,NS(=O)(=O)c1cccc(Nc2nc3ccccc3nc2NS(=O)(=O)c2ccc(Cl)cc2)c1
6,> 45.4,CC1=NCCN1CCNC(=O)Nc1ccc(C(C)(C)C)cc1
7,> 39.2,CC1CCCN(C(=O)c2ccc3c(c2)OCCO3)C1 (stereo not given)
8,> 47.6,O=C(NC1CCCC1)C1CC(O)CN1C(=O)Nc1ccccc1 (stereo not given)
9,> 45.1,Cc1cc(C(=O)N2CCN(c3ccccc3O)CC2)c(C)o1
10,> 52.9,N#Cc1c(N2C(=O)c3ccc(C(=O)O)cc3C2=O)sc2c1CCCC2
11,> 43.3,CC(C)(C)c1ccc(C(=O)NCC(=O)N2CCCC2)cc1
12,3.9,CSc1ncccc1C(=O)OCC(=O)c1cc(C)n(C)c1C
13,40.8,O=C(CCSc1ccc(Cl)cc1)NCc1ccccn1
14,> 59.4,COc1cc(CNC(C)C23CC4CC(CC(C4)C2)C3)cc(OC)c1OC.Cl (stereo not given)
15,0.7,COc1ccccc1C(=O)NCCNc1ccc([N+](=O)[O-])cc1Cl
16,28.3,CCCn1cnc2cc(NCc3ccccc3O)ccc21
17,> 55,COc1cccc(NC(=O)[C@@H]2CCC(=O)N2C2OC(=O)c3ccccc32)c1 (stereo not given in full)
18,14.8,CCn1c(=O)c([N+](=O)[O-])c(N2CCSCC2)c2ccccc21
19,> 50.6,CC1CC(C)CN(C(=O)COC(=O)CCC(=O)c2cccs2)C1 (stereo not given)
20,8.1,COc1ccccc1C(=O)N(C1=NC(C)CS1)c1ccc(Cl)cc1 (stereo not given)
21,> 41.9,COc1ccc(NC(=O)COC(=O)C2CC2)c(OC)c1
22,> 43.7,O=C(O)c1cc2c(cc1NC(=O)C1CCCC1)OCCO2
23,10.7,Cc1occc1C(=O)Nc1sccc1C(N)=O
24,> 50.9,NC(=O)c1ccc[n+](CC(=O)c2ccc(F)cc2)c1.[Br-]

row,solubility kinetic [µg/mL],SMILES
1,4.6,O=C(NC1CC2CCCC(C1)N2C(=O)Nc1ccccc1)c1ccccc1 (stereo not given)
2,51.6,COc1ccc(NC(=O)C2CCCCC2)cc1S(=O)(=O)N1CCOCC1
3,47.7,O=C(COC(=O)Cc1ccsc1)Nc1ccc(Cl)cc1F
4,33.5,Cc1ccc(NC(=S)c2ccncc2)cc1
5,6.5,C=CCOc1ccc(C=Nc2ccc(OC)cc2)c(O)c1
6,46.4,O=C1CCC([N+](=O)[O-])C(c2cc(Br)ccc2F)N1 (stereo not given)
7,> 44.2,CCc1ccc(N(C(C)=O)c2nc(CCl)cs2)cc1
8,> 53.6,CCOC(=O)c1cnc2c(C)cccc2c1NCCCN1CCOCC1
9,33.9,Brc1ccc(CNCC2CCCO2)cc1 (stereo not given)
10,30.2,COc1ccc2[nH]cc(S(=O)(=O)c3ccc(C)cc3)c2c1
11,42.2,COc1ccc2[nH]cc(CCn3ccc(=O)c(C)c3C)c2c1
12,> 46.1,Cc1ccn2cc(CNS(=O)(=O)c3cccs3)nc2c1
13,> 50.5,CC1CCN(C(=O)c2ccccc2NC(=O)Cc2ccccc2)CC1
14,> 39.2,Fc1ccc(-n2c(-c3ccco3)n[nH]c2=S)cc1
15,41.9,Cc1cccc(NC(=O)C(=O)NCCCN2CCOCC2)c1
16,> 46.3,CC1(C)CC(NC(=O)Cc2ccc(Cl)cc2)CC(C)(C)N1
17,37.7,O=C1CSC(c2cccc([N+](=O)[O-])c2)N1c1ccccc1F (stereo not given)
18,1,Oc1ccc(-c2csc(Nc3ncccn3)n2)cc1
19,0.6,CC1Cc2ccccc2N1S(=O)(=O)c1cnc(Cl)c(Cl)c1 (stereo not given)
20,38.7,O=C(NCc1cccnc1)C12CC3CC(CC(C3)C1)C2
21,2.5,CSc1ccccc1NC(=S)NCc1ccc(Cl)cc1
22,> 35.3,COc1ccc(CC(=O)NC2CC2)cc1OC

row,SMILES,solubility kinetic [µg/mL]
1,COc1ccccc1NC(=O)COC(=O)c1cn(C)c2ccccc12,1.5
2,O=C(Nc1cccc(OC(=O)N2CCCCC2)c1)N1CCOCC1,> 50
